Consider two molecules from publication PMC3583578 (Oncology Reports, 2012).

For data set [1], the system named is TNFα-induced NF-κB activation. Description: Luciferase-based in cellulo NF-κB reporter assay. It is filed as cell-based, human. The following applies: K562 cells after transfection.
Data set [2] concerns 26S protease (chymotrypsin, trypsin- and caspase-like activities). The note with it: three proteolytic activities, dose-dependent; cited from earlier work.

Consider `COc1cccc(/C=C/C(=O)c2ccccc2O)c1OC` [Chalcone 16, 2,3-Dimethoxy-2′-hydroxychalcone], for which the “Cytotoxicity at concentrations which inhibited NF-κB activation (in words)” value in data set [1] is given as “cytotoxic”.
As for `O=C(/C=C/c1ccccc1)c1ccc(O)cc1` [Chalcone 7, 4′-Hydroxychalcone], the “26S protease inhibition activity (in words)” value in data set [2] is “inhibition activity”.
